Measurements: patent US20070233400A1, “Method of calculating environmental risk of a chemical” (AMSTED Industries Incorporated, priority 2006, published 2007)

What was measured:
[1] = published sources; cited from earlier work
[2] = sand
Source text: Mobility it defined as the ability of a chemical to migrate in the environment. Mobility of a chemical in the environment is governed by two factors that include the physical chemistry of the chemical and the physical and chemical characteristics of the geologic environment to which the chemical is released.
To obtain a value to represent the mobility of each compound, two variables are used: Henry's Law constant (H), which focuses on the physical chemistry of the chemical and the retardation factor (R), which focuses on the physical and chemical characteristics of the geological environment. The retardation factor was calculated by first calculating the distribution coefficient using Equation 1. Kd=(Foc)(Koc) where: Kd=distribution coefficient (mL·g^−1); Koc=organic carbon partition coefficient (1/mg); Foc=fraction of organic carbon in soil (mg/mg)
Values for the organic carbon partition coefficient can be obtained from location-specific testing of soil or from various published sources. And the fraction of organic carbon in soil can be obtained from location-specific testing of soil or from various published sources.
Once the distribution coefficient is calculated, the Retardation Factor can be calculated using Equation 2. [formula] where: R is the retardation factor; ρb=bulk density of aquifer matrix (g/cm^3); Kd=distribution coefficient (mL·g^−1); η=effective porosity Henry's Law constant (H) (atm.·mol^−1·m^−3) is a measure of the tendency for organic solutes to volatilize. It is related to vapor pressure (VP) (atm.), molecular weight (MW) (g/mol); and solubility in water (Ws) (g/L) according to Equation (3): H=(VP)/(MW)(Ws) With Henry's Law constant and the retardation factor in place, the mobility of a specific compound is expressed as Equation (4): M=(H)(R) where: M=mobility; H=Henry's Law constant; R=retardation factor

[3] = oral pathway; more conservative of carcinogenic or chronic value; published sources; cited from earlier work

c1ccccc1 [benzene]
Henry's Law constant (H) [1]: 0.228 atm.·mol^−1·m^−3
mobility factor (M) ([2]; M=(H)(R)): 0.2576
distribution coefficient (Kd) ([2]; Foc 0.0003 mg/mg, Kd=Foc×Koc): 0.0177 mL/g
retardation factor (R) ([2]; bulk density 1.8 g/cm^3, effective porosity 0.25): 1.13
toxicity value (T) [3]: 0.04 mg/kg-day^−1
